Laboratory results reported in patent publication US11332468B2, “Azaindole derivatives as Rho-kinase inhibitors” (CHIESI FARMACEUTICI S.p.A., priority 2017, dated 2022).

Experiments:
Rho kinase 1 (ROCK1) = Rho kinase 1 (ROCK1) (Homo sapiens, UniProt Q13464); assay: In vitro Rho kinase inhibitory activity assay (ADP-Glo), ROCK1; type: biochemical; conditions: Ki by Cheng-Prusoff from IC50; 10 μM ATP; range of activity
Experimental: (§1) The effectiveness of compounds of the invention to inhibit Rho kinase activity can be determined in a […] assay containing 40 mM Tris pH7.5, 20 mM MgC2 0.1 mg/ml BSA, 50 μM DTT and 2.5 μM peptide substrate (Myelin Basic Protein) using an ADP-Glo kit (Promega). Compounds were dissolved in DMSO such that the final concentration of DMSO was 1% in the assay. All reactions/incubations are performed at 25° C. Compound (2 ul) and either Rho kinase 1 or 2 (4 μl) were mixed and incubated for 30 mins. Reactions were initiated by addition of ATP (4 μl) such that the final concentration of ATP in the assay was 10 μM. After a 1 hour incubation 10 μl of ADP-Glo Reagent was added and after a further 45 minute incubation 20 ul of Kinase Detection Buffer was added and the mixture incubated for a further 30 minutes. The luminescent signal was measured on a luminometer. […] Compounds were tested in dose-response format and the inhibition of kinase activity was calculated at each concentration of compound. To determine the IC50 (concentration of compound required to inhibit 50% of the enzyme activity) data were fit to a plot of % inhibition vs Log10 compound concentration using a sigmoidal fit with a variable slope and fixing the maximum to 100% and the minimum to 0%. To determine the Ki values the Cheng-Prusoff equation was utilized (Ki=IC50/(1+[S]/Km)

Rho kinase 2 (ROCK2) = Rho kinase 2 (ROCK2) (Homo sapiens, UniProt O75116); assay: In vitro Rho kinase inhibitory activity assay (ADP-Glo), ROCK2; type: biochemical; conditions: Ki by Cheng-Prusoff from IC50; 10 μM ATP; range of activity
Chain of Rho kinase 2 (ROCK2) (O75116 whole entry): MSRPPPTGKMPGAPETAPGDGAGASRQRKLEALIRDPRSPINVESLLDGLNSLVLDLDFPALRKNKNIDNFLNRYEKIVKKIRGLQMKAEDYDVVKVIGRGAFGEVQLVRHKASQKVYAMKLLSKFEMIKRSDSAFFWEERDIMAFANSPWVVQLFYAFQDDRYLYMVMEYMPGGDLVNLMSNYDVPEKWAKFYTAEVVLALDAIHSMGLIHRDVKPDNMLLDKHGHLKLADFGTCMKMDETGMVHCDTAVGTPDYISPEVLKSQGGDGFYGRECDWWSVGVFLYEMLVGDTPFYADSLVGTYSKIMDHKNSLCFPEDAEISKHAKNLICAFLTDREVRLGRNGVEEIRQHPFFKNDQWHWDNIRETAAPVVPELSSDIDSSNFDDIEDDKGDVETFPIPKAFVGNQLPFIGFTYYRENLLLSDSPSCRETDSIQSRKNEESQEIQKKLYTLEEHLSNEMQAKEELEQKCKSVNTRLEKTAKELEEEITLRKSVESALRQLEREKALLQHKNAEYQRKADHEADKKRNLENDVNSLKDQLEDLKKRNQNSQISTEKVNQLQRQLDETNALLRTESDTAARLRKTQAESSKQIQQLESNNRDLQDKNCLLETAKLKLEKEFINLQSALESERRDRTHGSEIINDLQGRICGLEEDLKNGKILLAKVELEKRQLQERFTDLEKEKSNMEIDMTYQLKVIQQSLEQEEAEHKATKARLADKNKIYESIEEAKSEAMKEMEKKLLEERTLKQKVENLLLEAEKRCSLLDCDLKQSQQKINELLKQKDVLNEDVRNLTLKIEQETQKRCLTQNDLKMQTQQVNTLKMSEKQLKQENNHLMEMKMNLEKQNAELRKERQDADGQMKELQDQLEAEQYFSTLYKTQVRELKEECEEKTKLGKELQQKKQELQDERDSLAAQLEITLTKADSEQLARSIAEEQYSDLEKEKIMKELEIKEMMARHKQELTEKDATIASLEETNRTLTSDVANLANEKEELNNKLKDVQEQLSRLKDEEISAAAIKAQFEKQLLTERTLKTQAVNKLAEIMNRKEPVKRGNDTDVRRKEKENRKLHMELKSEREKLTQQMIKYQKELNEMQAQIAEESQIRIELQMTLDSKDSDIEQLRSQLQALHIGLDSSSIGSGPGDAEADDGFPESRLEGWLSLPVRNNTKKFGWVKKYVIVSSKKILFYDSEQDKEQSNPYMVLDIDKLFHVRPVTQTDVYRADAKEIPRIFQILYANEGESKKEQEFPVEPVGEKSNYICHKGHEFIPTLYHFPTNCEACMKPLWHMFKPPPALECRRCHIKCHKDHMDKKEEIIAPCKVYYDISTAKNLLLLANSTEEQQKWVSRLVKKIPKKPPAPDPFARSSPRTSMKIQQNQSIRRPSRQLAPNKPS
Experimental: as §1

Chain of Rho kinase 1 (ROCK1) (Q13464 whole entry): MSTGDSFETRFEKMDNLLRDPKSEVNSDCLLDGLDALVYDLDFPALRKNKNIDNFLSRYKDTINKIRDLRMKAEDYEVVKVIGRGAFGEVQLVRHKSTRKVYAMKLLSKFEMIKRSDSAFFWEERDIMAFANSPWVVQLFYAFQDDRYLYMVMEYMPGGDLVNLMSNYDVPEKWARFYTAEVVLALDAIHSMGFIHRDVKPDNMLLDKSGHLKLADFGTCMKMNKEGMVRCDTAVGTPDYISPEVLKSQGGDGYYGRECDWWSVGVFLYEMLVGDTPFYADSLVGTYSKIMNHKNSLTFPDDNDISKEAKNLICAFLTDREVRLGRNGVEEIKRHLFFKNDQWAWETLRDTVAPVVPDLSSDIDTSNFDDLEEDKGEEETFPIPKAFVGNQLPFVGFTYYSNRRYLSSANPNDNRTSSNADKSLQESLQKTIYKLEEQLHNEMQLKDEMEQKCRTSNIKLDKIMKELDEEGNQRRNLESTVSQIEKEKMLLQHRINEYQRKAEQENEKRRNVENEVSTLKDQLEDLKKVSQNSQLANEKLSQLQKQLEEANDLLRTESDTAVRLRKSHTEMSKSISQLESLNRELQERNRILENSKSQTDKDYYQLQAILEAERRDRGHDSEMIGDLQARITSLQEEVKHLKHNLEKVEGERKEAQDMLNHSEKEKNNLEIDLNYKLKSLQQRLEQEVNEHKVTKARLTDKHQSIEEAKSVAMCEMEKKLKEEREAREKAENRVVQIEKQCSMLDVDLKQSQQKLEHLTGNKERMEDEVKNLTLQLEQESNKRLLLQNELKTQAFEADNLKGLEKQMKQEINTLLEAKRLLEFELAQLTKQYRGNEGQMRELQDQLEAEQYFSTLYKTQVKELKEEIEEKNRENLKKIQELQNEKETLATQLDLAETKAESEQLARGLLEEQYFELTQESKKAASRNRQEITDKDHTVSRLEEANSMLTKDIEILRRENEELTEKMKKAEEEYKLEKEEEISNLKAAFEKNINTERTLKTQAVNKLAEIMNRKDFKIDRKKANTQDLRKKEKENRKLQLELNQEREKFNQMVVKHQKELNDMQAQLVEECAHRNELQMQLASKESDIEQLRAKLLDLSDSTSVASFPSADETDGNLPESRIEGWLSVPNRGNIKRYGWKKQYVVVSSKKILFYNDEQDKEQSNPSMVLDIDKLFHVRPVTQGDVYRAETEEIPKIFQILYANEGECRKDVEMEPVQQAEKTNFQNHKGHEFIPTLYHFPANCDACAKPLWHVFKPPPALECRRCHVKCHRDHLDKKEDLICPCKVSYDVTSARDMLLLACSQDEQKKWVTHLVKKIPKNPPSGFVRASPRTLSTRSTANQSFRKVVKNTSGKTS

Structure (SMILES)	Ki (Rho kinase 1 (ROCK1)) [nM]	Ki (Rho kinase 2 (ROCK2)) [nM]
Cc1c[nH]c2nccc(Oc3ccc(C4CCCN4)cc3)c12 (racemic) [Example 18, 3-methyl-4-(4-(pyrrolidin-2-yl)phenoxy)-1H-pyrrolo[2,3-b]pyridine]	5 to 50	5 to 50
Cc1c[nH]c2nccc(Oc3ccc(C4CCCN4)cc3)c12 (single isomer, unassigned) [Example 18A, 3-methyl-4-(4-(pyrrolidin-2-yl)phenoxy)-1H-pyrrolo[2,3-b]pyridine]	5 to 50	< 5
Cc1c[nH]c2nccc(Oc3ccc(C4CCCN4)cc3)c12 (single isomer, unassigned) [Example 18B, 3-methyl-4-(4-(pyrrolidin-2-yl)phenoxy)-1H-pyrrolo[2,3-b]pyridine]		5 to 50
Cc1c[nH]c2nccc(Oc3ccc4c(c3)CNCC4)c12 [Example 1, 7-((3-Methyl-1H-pyrrolo[2,3-b]pyridin-4-yl)oxy)-1,2,3,4-tetrahydroisoquinoline]	< 5	< 5
Cc1c[nH]c2nccc(Oc3ccc4c(c3)CNC4)c12 [Example 2, 4-(isoindolin-5-yloxy)-3-methyl-1H-pyrrolo[2,3-b]pyridine]	< 5	< 5
CNCc1ccc(Oc2ccnc3[nH]cc(C)c23)cc1 [Example 3, N-methyl-1-(4-((3-methyl-1H-pyrrolo[2,3-b]pyridin-4-yl)oxy)phenyl)methanamine]	5 to 50	5 to 50
NCCc1ccc(Oc2ccnc3[nH]ccc23)cc1 [Example 4, 2-(4-((1H-pyrrolo[2,3-b]pyridin-4-yl)oxy)phenyl)ethanamine]	5 to 50	5 to 50
Cc1c[nH]c2nccc(Oc3ccc4c(c3)CCNCC4)c12 [Example 5, 7-((3-methyl-1H-pyrrolo[2,3-b]pyridin-4-yl)oxy)-2,3,4,5-tetrahydro-1H-benzo[d]azepine]	< 5	< 5
Cc1c[nH]c2ncnc(Oc3ccc4c(c3)CNCC4)c12 [Example 6, 7-((5-methyl-7H-pyrrolo[2,3-d]pyrimidin-4-yl)oxy)-1,2,3,4-tetrahydroisoquinoline]	5 to 50	5 to 50
Cc1c[nH]c2ncnc(Oc3ccc(C4CCNC4)cc3)c12 (centres unmarked) [Example 7, 5-methyl-4-(4-(pyrrolidin-3-yl)phenoxy)-7H-pyrrolo[2,3-d]pyrimidine]	> 50	> 50
Cc1c[nH]c2ncnc(Oc3ccc(CCN)cc3)c12 [Example 8, 2-(4-((5-methyl-7H-pyrrolo[2,3-d]pyrimidin-4-yl)oxy)phenyl)ethanamine]	> 50	> 50
Cc1c[nH]c2ncnc(Oc3ccc(CN)cc3)c12 [Example 9, (4-((5-methyl-7H-pyrrolo[2,3-d]pyrimidin-4-yl)oxy)phenyl)methanamine]	> 50	> 50
Cc1c[nH]c2nccc(Oc3ccc4c(c3)CN(C)CC4)c12 [Example 10, 2-methyl-7-((3-methyl-1H-pyrrolo[2,3-b]pyridin-4-yl)oxy)-1,2,3,4-tetrahydroisoquinoline]	< 5	< 5
Cc1c[nH]c2nccc(Oc3ccc4c(c3)CCNC4)c12 [Example 11, 6-((3-methyl-1H-pyrrolo[2,3-b]pyridin-4-yl)oxy)-1,2,3,4-tetrahydroisoquinoline]	5 to 50	5 to 50
Cc1c[nH]c2nccc(Oc3ccc(CN)cc3F)c12 [Example 12, (3-fluoro-4-((3-methyl-1H-pyrrolo[2,3-b]pyridin-4-yl)oxy)phenyl)methanamine]	< 5	< 5
Cc1c[nH]c2nccc(Oc3ccc(C4CNCCN4)cc3)c12 (centres unmarked) [Example 13, 3-methyl-4-(4-(piperazin-2-yl)phenoxy)-1H-pyrrolo[2,3-b]pyridine]	5 to 50	5 to 50
Cc1c[nH]c2nccc(Oc3ccc4c(c3)CC(N)C4)c12 (centres unmarked) [Example 14, 5-((3-methyl-1H-pyrrolo[2,3-b]pyridin-4-yl)oxy)-2,3-dihydro-1H-inden-2-amine]	5 to 50	< 5
Cc1c[nH]c2nccc(Oc3ccc4c(c3)CCCNC4)c12 [Example 15, 7-((3-methyl-1H-pyrrolo[2,3-b]pyridin-4-yl)oxy)-2,3,4,5-tetrahydro-1H-benzo[c]azepine]	5 to 50	5 to 50
Cc1c[nH]c2nccc(Oc3ccc4c(c3)CNCCC4)c12 [Example 16, 8-((3-methyl-1H-pyrrolo[2,3-b]pyridin-4-yl)oxy)-2,3,4,5-tetrahydro-1H-benzo[c]azepine]	5 to 50	< 5
Cc1c[nH]c2nccc(Oc3ccc(C4CNC4)cc3)c12 [Example 17, 4-(4-(azetidin-3-yl)phenoxy)-3-methyl-1H-pyrrolo[2,3-b]pyridine]	5 to 50	< 5

Structure (SMILES)	Ki (Rho kinase 1 (ROCK1)) [nM]	Ki (Rho kinase 2 (ROCK2)) [nM]
Cc1c[nH]c2nccc(Oc3ccc(CCN)cc3)c12 [Example 19, 2-(4-((3-methyl-1H-pyrrolo[2,3-b]pyridin-4-yl)oxy)phenyl)ethanamine]	< 5	< 5
Cc1c[nH]c2nccc(Oc3ccc(C4CCNC4)cc3)c12 (centres unmarked) [Example 20, 3-methyl-4-(4-(pyrrolidin-3-yl)phenoxy)-1H-pyrrolo[2,3-b]pyridine]	< 5	< 5
Cc1c[nH]c2nccc(Oc3ccc(CN)cc3)c12 [Example 21, (4-((3-methyl-1H-pyrrolo[2,3-b]pyridin-4-yl)oxy)phenyl)methanamine]	5 to 50	< 5
Cc1c[nH]c2nccc(Oc3ccc(CCN4CCCC4)cc3)c12 [Example 22, 3-methyl-4-(4-(2-(pyrrolidin-1-yl)ethyl)phenoxy)-1H-pyrrolo[2,3-b]pyridine]	5 to 50	5 to 50
Cc1c[nH]c2nccc(Oc3ccc(C(C)N)cc3F)c12 (centres unmarked) [Example 23, 1-(3-fluoro-4-((3-methyl-1H-pyrrolo[2,3-b]pyridin-4-yl)oxy)phenyl)ethanamine]	< 5	< 5
Cc1c[nH]c2nccc(Oc3ccc(C(C)N)cc3)c12 (centres unmarked) [Example 24, 1-(4-((3-methyl-1H-pyrrolo[2,3-b]pyridin-4-yl)oxy)phenyl)ethanamine]	5 to 50	< 5
Cc1c[nH]c2nccc(Oc3ccc(C(C)(C)N)cc3)c12 [Example 25, 2-(4-((3-methyl-1H-pyrrolo[2,3-b]pyridin-4-yl)oxy)phenyl)propan-2-amine]	5 to 50	< 5
Cc1c[nH]c2nccc(Oc3ccc4c(c3)CCCC4N)c12 (centres unmarked) [Example 26]	5 to 50	5 to 50
Cc1c[nH]c2nccc(Oc3ccc(CN4CCOCC4)cc3)c12 [Example 27, 4-(4-((3-Methyl-1H-pyrrolo[2,3-b]pyridin-4-yl)oxy)benzyl)morpholine]	> 50	> 50
Cc1c[nH]c2nccc(Oc3ccc(CNC4CCOCC4)cc3)c12 [Example 28, N-(4-((3-methyl-1H-pyrrolo[2,3-b]pyridin-4-yl)oxy)benzyl)tetrahydro-2H-pyran-4-amine]	5 to 50	5 to 50
Cc1c[nH]c2nccc(Oc3ccc(CN(C)C)cc3)c12 [Example 29, N,N-dimethyl-1-(4-((3-methyl-1H-pyrrolo[2,3-b]pyridin-4-yl)oxy)phenyl)methanamine]	5 to 50	5 to 50
Cc1c[nH]c2nccc(Oc3ccc(CNC4CCN(C)CC4)cc3)c12 [Example 30, 1-methyl-N-(4-((3-methyl-1H-pyrrolo[2,3-b]pyridin-4-yl)oxy)benzyl)piperidin-4-amine]	5 to 50	5 to 50
Cc1c[nH]c2nccc(Oc3ccc(CNCCO)cc3)c12 [Example 31, 2-((4-((3-methyl-1H-pyrrolo[2,3-b]pyridin-4-yl)oxy)benzyl)amino)ethanol]	5 to 50	5 to 50
Cc1c[nH]c2nccc(Oc3ccc(CN4CCC5(CCNC5)C4)cc3)c12 (centres unmarked) [Example 32, 4-(4-(2,7-diazaspiro[4.4]nonan-2-ylmethyl)phenoxy)-3-methyl-1H-pyrrolo[2,3-b]pyridine]	5 to 50	5 to 50
Cc1c[nH]c2nccc(Oc3ccc(CN4CCN(C)CC4)cc3)c12 [Example 33, 3-methyl-4-(4-((4-methylpiperazin-1-yl)methyl)phenoxy)-1H-pyrrolo[2,3-b]pyridine]	> 50	5 to 50
N#Cc1c[nH]c2nccc(Oc3ccc4c(c3)CNCC4)c12 [Example 34, 4-((1,2,3,4-Tetrahydroisoquinolin-7-yl)oxy)-1H-pyrrolo[2,3-b]pyridine-3-carbonitrile]	< 5	< 5
NCc1cc(F)c(Oc2ccnc3[nH]ccc23)c(F)c1 [Example 35, (4-((1H-Pyrrolo[2,3-b]pyridin-4-yl)oxy)-3,5-difluorophenyl)methanamine]	5 to 50	< 5
Cc1c[nH]c2nccc(Oc3ccc(C[C@H](N)CO)cc3F)c12 [Example 36, (S)-2-amino-3-(3-fluoro-4-((3-methyl-1H-pyrrolo[2,3-b]pyridin-4-yl)oxy)phenyl)propan-1-ol]	< 5	< 5
Cc1c[nH]c2nccc(Oc3ccc(C[C@H](N)CO)cc3)c12 [Example 37, (S)-2-amino-3-(4-((3-methyl-1H-pyrrolo[2,3-b]pyridin-4-yl)oxy)phenyl)propan-1-ol]	< 5	< 5
